Measurements published in the NIST ThermoML archive (doi:10.1016/j.jct.2012.04.025).
± gives the expanded uncertainty stated by the source.

test: molar heat capacity at constant pressure; details: 298.15 K; 101.33 kPa; Liquid; High-precision drop calorimeter

Structure (SMILES)	molar heat capacity at constant pressure [J/K/mol]
CCCn1cc[n+](C)c1.O=S(=O)([N-]S(=O)(=O)C(F)(F)F)C(F)(F)F	534.9 ± 5
CCCC[n+]1ccn(C)c1.O=S(=O)([N-]S(=O)(=O)C(F)(F)F)C(F)(F)F	565.9 ± 5
CCCCCCCn1cc[n+](C)c1.O=S(=O)([N-]S(=O)(=O)C(F)(F)F)C(F)(F)F	659.2 ± 6
CCCCCCCCCCCCn1cc[n+](C)c1.O=S(=O)([N-]S(=O)(=O)C(F)(F)F)C(F)(F)F	820.2 ± 8
CCn1cc[n+](C)c1.O=S(=O)([N-]S(=O)(=O)C(F)(F)F)C(F)(F)F	504.8 ± 5
CCCCCC[n+]1ccn(C)c1.O=S(=O)([N-]S(=O)(=O)C(F)(F)F)C(F)(F)F	629.4 ± 6
CCCCCCCCn1cc[n+](C)c1.O=S(=O)([N-]S(=O)(=O)C(F)(F)F)C(F)(F)F	690.2 ± 7
CCCCCn1cc[n+](C)c1.O=S(=O)([N-]S(=O)(=O)C(F)(F)F)C(F)(F)F	595.6 ± 6
CCCCCCCCCCn1cc[n+](C)c1.O=S(=O)([N-]S(=O)(=O)C(F)(F)F)C(F)(F)F	754.5 ± 7
